Laboratory results reported in patent US7880007B2, “Bicyclic substituted phenyl piperidine modulators of muscarinic receptors” (Vertex Pharmaceuticals Incorporated, priority 2004, dated 2011).

Experiments:
Assay type in all cases: cell-based
M3 muscarinic receptor = target: T1, M3 muscarinic receptor (Homo sapiens, UniProt P20309); experiment: Functional mobilization of intracellular calcium (FLIPR), M3-CHO cells; conditions: for M3 Activity: M3-CHO cells, calcium mobilization (FLIPR)
T1 construct: expressed in transfected cells; host or cells: CHO (M3-CHO)
T1 sequence (P20309 whole entry): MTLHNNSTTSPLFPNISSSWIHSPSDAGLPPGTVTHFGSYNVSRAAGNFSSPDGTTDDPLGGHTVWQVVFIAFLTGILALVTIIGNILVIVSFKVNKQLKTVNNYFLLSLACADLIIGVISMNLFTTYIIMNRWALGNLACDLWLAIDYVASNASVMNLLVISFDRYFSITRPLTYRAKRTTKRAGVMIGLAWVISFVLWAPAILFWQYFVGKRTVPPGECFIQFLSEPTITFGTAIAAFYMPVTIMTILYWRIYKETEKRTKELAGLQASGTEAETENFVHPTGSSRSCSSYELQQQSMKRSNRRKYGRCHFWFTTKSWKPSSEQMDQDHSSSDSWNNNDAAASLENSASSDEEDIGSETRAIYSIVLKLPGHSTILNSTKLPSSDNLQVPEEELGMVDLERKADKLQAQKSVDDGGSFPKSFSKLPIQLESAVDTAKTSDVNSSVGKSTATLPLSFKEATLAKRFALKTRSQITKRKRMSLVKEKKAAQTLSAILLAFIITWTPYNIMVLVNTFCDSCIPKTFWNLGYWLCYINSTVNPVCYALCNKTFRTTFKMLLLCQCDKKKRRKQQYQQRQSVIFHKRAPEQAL
How it was run: (§1)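 CHO cells expressing human M1–M4 receptors loaded with Fluo-3 AM or Calcium 3 dye (1 mM probenecid, pH 7.4); 0.5% DMSO final. Agonist mode: compound added directly; antagonist mode: 15 min pre-incubation or co-application, then carbachol at EC80. Fluorescence read 60 s on FLIPR; efficacy relative to carbachol maximum.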

M1 muscarinic receptor = target: T2, M1 muscarinic receptor (Homo sapiens, UniProt P11229); experiment: Functional mobilization of intracellular calcium (FLIPR), M1-CHO cells; conditions: for M1 Activity: M1-CHO cells, calcium mobilization (FLIPR)
T2 construct: expressed in transfected cells; host or cells: CHO (M1-CHO)
T2 sequence (P11229 1-460): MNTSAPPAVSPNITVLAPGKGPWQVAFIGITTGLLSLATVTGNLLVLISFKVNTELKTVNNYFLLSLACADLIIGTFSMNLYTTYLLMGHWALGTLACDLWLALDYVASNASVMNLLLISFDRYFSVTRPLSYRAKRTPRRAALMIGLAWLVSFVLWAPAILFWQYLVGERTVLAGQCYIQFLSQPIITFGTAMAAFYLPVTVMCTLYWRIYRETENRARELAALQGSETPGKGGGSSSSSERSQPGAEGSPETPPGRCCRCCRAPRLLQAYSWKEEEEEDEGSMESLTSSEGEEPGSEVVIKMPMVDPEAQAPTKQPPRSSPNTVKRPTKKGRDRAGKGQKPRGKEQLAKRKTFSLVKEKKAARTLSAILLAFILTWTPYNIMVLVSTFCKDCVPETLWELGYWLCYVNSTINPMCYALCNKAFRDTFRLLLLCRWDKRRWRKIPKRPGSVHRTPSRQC
How it was run: as §1

M2 muscarinic receptor = target: T3, M2 muscarinic receptor (Homo sapiens, UniProt P08172); experiment: Functional mobilization of intracellular calcium (FLIPR), M2-CHO cells; conditions: for M2 Activity: M2-CHO cells, calcium mobilization (FLIPR)
T3 construct: expressed in transfected cells; host or cells: CHO (M2-CHO)
T3 sequence (P08172 1-466): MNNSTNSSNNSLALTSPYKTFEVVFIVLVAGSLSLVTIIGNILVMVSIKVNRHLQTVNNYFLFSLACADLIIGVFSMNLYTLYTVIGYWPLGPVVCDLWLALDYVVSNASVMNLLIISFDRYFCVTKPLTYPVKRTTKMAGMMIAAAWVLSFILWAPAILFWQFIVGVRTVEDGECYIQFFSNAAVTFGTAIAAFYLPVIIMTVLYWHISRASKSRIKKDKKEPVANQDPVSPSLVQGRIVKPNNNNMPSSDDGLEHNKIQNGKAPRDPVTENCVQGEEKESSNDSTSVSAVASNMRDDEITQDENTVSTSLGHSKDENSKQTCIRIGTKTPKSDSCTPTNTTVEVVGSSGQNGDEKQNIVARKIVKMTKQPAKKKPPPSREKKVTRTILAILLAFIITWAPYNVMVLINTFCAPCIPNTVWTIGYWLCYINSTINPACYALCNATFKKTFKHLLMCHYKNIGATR
How it was run: as §1

M4 muscarinic receptor = target: T4, M4 muscarinic receptor (Homo sapiens, UniProt P08173); experiment: Functional mobilization of intracellular calcium (FLIPR), M4-CHO cells; conditions: for M4 Activity: M4-CHO cells, calcium mobilization (FLIPR)
T4 construct: expressed in transfected cells; host or cells: CHO (M4-CHO)
T4 sequence (P08173 1-479): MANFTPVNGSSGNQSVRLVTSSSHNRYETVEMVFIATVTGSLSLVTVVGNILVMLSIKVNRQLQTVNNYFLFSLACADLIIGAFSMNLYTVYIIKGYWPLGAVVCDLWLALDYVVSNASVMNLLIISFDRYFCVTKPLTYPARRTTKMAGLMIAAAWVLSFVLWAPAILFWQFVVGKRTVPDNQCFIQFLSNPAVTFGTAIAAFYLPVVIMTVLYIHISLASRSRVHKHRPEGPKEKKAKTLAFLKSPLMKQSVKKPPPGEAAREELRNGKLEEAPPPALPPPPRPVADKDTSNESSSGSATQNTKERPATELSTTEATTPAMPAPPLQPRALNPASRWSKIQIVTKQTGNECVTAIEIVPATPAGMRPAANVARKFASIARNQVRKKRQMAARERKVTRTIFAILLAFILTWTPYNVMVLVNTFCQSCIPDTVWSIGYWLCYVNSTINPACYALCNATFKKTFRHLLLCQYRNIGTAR
How it was run: as §1

[1] = 100% efficacy = maximum response obtained with the Carbachol control
[2] = 100% efficacy is the maximum response obtained with the Carbachol control

Structure (SMILES) | Emax (M3 muscarinic receptor; [1]) | Emax (M1 muscarinic receptor; [1]) | Emax (M2 muscarinic receptor; [1]) | Emax (M4 muscarinic receptor; [1]) | Emax (M3 muscarinic receptor; [2]) | Emax (M1 muscarinic receptor; [2]) | Emax (M2 muscarinic receptor; [2]) | Emax (M4 muscarinic receptor; [2]) | M3 Activity (M3 muscarinic receptor) | M1 Activity (M1 muscarinic receptor) | M2 Activity (M2 muscarinic receptor) | M4 Activity (M4 muscarinic receptor)
COc1ccc(F)cc1C1(OC)CCN(CC2CCOCC2)CC1 [Compound 150] | < 25% | 25 to 100% | < 25% | 25 to 100% |  |  |  |  | + (activity was measured to be greater than 5.0 μM) | + (activity was measured to be greater than 5.0 μM) | + (activity was measured to be greater than 5.0 μM) | + (activity was measured to be greater than 5.0 μM)
COc1cc(F)ccc1C1CCN(C2CCOCC2)CC1 [Compound 349] | < 25% | 25 to 100% | < 25% | 25 to 100% |  |  |  |  | + (activity was measured to be greater than 5.0 μM) | + (activity was measured to be greater than 5.0 μM) | + (activity was measured to be greater than 5.0 μM) | +++ (activity was measured to be less than 1.0 μM)
COc1ccc(F)cc1C1(OC)CCN(C2CC3CCC(C3)C2)CC1 (stereo not shown) [Compound 247] | < 25% | < 25% | < 25% | 25 to 100% |  |  |  |  | + (activity was measured to be greater than 5.0 μM) | + (activity was measured to be greater than 5.0 μM) | + (activity was measured to be greater than 5.0 μM) | +++ (activity was measured to be less than 1.0 μM)
COc1ccccc1[C@H]1CCN([C@@H]2C[C@H]3CC[C@H]2C3)C[C@@H]1O [Compound 117] | < 25% | < 25% | < 25% | 25 to 100% |  |  |  |  | + (activity was measured to be greater than 5.0 μM) | + (activity was measured to be greater than 5.0 μM) | + (activity was measured to be greater than 5.0 μM) | + (activity was measured to be greater than 5.0 μM)
COc1ccccc1C1CCN(C2CCC(OC(=O)c3ccccc3)CC2)CC1 (stereo not shown) [Compound 410] |  |  |  |  | < 25% | < 25% | < 25% | 25 to 100% | + (activity was measured to be greater than 5.0 μM) | + (activity was measured to be greater than 5.0 μM) | + (activity was measured to be greater than 5.0 μM) | ++ (activity was measured to be from 1.0 μM to 5.0 μM)
CCOC(=O)N1CCC(CN2CCC(c3ccccc3C(F)(F)F)CC2)CC1 [Compound 405] |  |  |  |  | < 25% | 25 to 100% | 25 to 100% | > 100% | + (activity was measured to be greater than 5.0 μM) | +++ (activity was measured to be less than 1.0 μM) | ++ (activity was measured to be from 1.0 μM to 5.0 μM) | +++ (activity was measured to be less than 1.0 μM)
FC(F)(F)c1ccccc1C1CCN(C2C[C@H]3CC[C@H]2C3)CC1 (stereo partly shown) [Compound 32] | < 25% | 25 to 100% | < 25% | 25 to 100% |  |  |  |  |  |  |  | 
CCOC(=O)N1CCC(CN2CCC(F)(c3cc(Cl)ccc3OC)CC2)CC1 [Compound 122] | < 25% | 25 to 100% | 25 to 100% | 25 to 100% |  |  |  |  | + (activity was measured to be greater than 5.0 μM) | ++ (activity was measured to be from 1.0 μM to 5.0 μM) | ++ (activity was measured to be from 1.0 μM to 5.0 μM) | +++ (activity was measured to be less than 1.0 μM)
Cc1ccc(C)c(C2(O)CCN(CC3CC4C=CC3C4)CC2)c1 (stereo not shown) [Compound 62, 1-((bicyclo[2.2.1]hept-5-en-2-yl)methyl)-4-(2,5-dimethylphenyl)piperidin-4-ol] |  | 25 to 100% | < 25% | 25 to 100% |  |  |  |  | + (activity was measured to be greater than 5.0 μM) | ++ (activity was measured to be from 1.0 μM to 5.0 μM) | + (activity was measured to be greater than 5.0 μM) | ++ (activity was measured to be from 1.0 μM to 5.0 μM)
Cc1ccc(F)cc1C1CCN(C2C[C@H]3CC[C@H]2C3)CC1 (stereo partly shown) [Compound 73] | < 25% | 25 to 100% | 25 to 100% | 25 to 100% |  |  |  |  | + (activity was measured to be greater than 5.0 μM) | ++ (activity was measured to be from 1.0 μM to 5.0 μM) | ++ (activity was measured to be from 1.0 μM to 5.0 μM) | +++ (activity was measured to be less than 1.0 μM)

Now from value to compound, other results behind:

Emax (M3 muscarinic receptor; [1]) | Emax (M1 muscarinic receptor; [1]) | Emax (M2 muscarinic receptor; [1]) | Emax (M4 muscarinic receptor; [1]) | Emax (M3 muscarinic receptor; [2]) | Emax (M1 muscarinic receptor; [2]) | Emax (M2 muscarinic receptor; [2]) | Emax (M4 muscarinic receptor; [2]) | Structure (SMILES) | M3 Activity (M3 muscarinic receptor) | M1 Activity (M1 muscarinic receptor) | M2 Activity (M2 muscarinic receptor) | M4 Activity (M4 muscarinic receptor)
< 25% | 25 to 100% | 25 to 100% | 25 to 100% |  |  |  |  | COc1ccc(C)cc1C1CCN(C2C[C@H]3CC[C@H]2C3)CC1 (stereo partly shown) [Compound 51] | + (activity was measured to be greater than 5.0 μM) | ++ (activity was measured to be from 1.0 μM to 5.0 μM) | + (activity was measured to be greater than 5.0 μM) | +++ (activity was measured to be less than 1.0 μM)
< 25% | < 25% | < 25% | 25 to 100% |  |  |  |  | CCC(=O)c1ccc(OC)c(C2CCN([C@H]3C[C@H]4CC[C@H]3C4)CC2)c1 [Compound 282] | + (activity was measured to be greater than 5.0 μM) | + (activity was measured to be greater than 5.0 μM) | + (activity was measured to be greater than 5.0 μM) | ++ (activity was measured to be from 1.0 μM to 5.0 μM)
< 25% | < 25% | < 25% | 25 to 100% |  |  |  |  | COc1ccc(-c2cc(F)ccc2F)cc1C1CCN([C@H]2C[C@H]3CC[C@H]2C3)CC1 [Compound 206] | + (activity was measured to be greater than 5.0 μM) | + (activity was measured to be greater than 5.0 μM) | + (activity was measured to be greater than 5.0 μM) | + (activity was measured to be greater than 5.0 μM)
< 25% | 25 to 100% | < 25% | 25 to 100% |  |  |  |  | COc1ccc(-c2ccccc2C2CCN([C@H]3C[C@H]4CC[C@H]3C4)CC2)c(OC)c1 [Compound 139] | + (activity was measured to be greater than 5.0 μM) | + (activity was measured to be greater than 5.0 μM) | + (activity was measured to be greater than 5.0 μM) | ++ (activity was measured to be from 1.0 μM to 5.0 μM)
< 25% | < 25% | < 25% | 25 to 100% |  |  |  |  | Fc1ccc(-c2ccccc2C2CCN([C@H]3C[C@H]4CC[C@H]3C4)CC2)cc1 [Compound 294] | + (activity was measured to be greater than 5.0 μM) | + (activity was measured to be greater than 5.0 μM) | + (activity was measured to be greater than 5.0 μM) | ++ (activity was measured to be from 1.0 μM to 5.0 μM)
